Tested on: fecal microbiota
Experiment: Inferred metagenome of the fecal microbiota (PICRUSt, SIMPER)
Assay type: in vivo, mice
Details: for mean % abundance: day 7 feces
Method: Eight- to 10-week-old specific-pathogen-free C57BL/6J mice were purchased and allowed to acclimate for 2 weeks. Mice were fed standardized laboratory rodent diet and sterile water ad libitum. […] Mice were then rehoused on the basis of treatment group assignment, with 5 animals/group-cage. To induce NSAID enteropathy, mice in group 1 were gavaged once daily with indomethacin (5 mg/kg; for 7 days; Sigma Aldrich, St. Louis, Mo.) dissolved in dimethylysulfoxide (DMSO) (Sigma Aldrich, St. Louis, Mo.) and further diluted in phosphate buffered saline (PBS). […] Sigma Aldrich, St. Louis, Mo.) dissolved in sterile water warmed to 55° C. […] All mice were gavaged with equal volumes (200 μL) and equal concentrations of DMSO (0.001%). Feces were collected daily by placing individual animals in sterile plastic cups that were RNase- and DNase-free until they passed feces. The mice were immediately returned to their home cages and the feces immediately flash frozen at -80° C. All animals were euthanized via CO2 asphyxiation on day 8 (i.e., after 7 days of treatment). […] Life Technologies, Carlsbad, Calif.), homogenized, and prepared as a single cell suspension for flow cytometric analysis as previously described (Wang […]. Measuring bacterial load and immune responses in mice infected with Listeria monocytogenes. Journal of Visualized Experiments: JoVE 2011). The software Phylogenetic Investigation of Communities by Reconstruction of Unobserved States (PICRUSt) was used to predict the metagenome ([…], Knights […] Thurber R L, Knight R, et al. Predictive functional profiling of microbial communities using 16S rRNA marker gene sequences. Nature Biotechnology 2013; 31:814-21). Sequencing data were prepared as described above, but sequences were then clustered into OTUs using a closed-reference OTU picking protocol at the 97% sequencing identity level [http://qiime.org/scripts/pick_closed_reference_otus.html]. The resulting OTU table was normalized by the expected copy number(s) of the 16s rRNA gene in each OTU. PICRUSt was then used to predict the metagenome [https://picrust.github.io/picrust/tutorials/metagenome_prediction.html#metagenome-prediction-tutorial]. Each sample was rarefied to an even sequencing depth to adjust for uneven sequencing depth prior to further analysis. Differences in the metagenomes among the groups were investigated by visual assessment of clustering on PCA and by analysis of similarity (ANOSIM) calculated on Bray Curtis dissimilarity metric.

[1] = Unclassified, Metabolism, Energy metabolism
[2] = Unclassified, Metabolism, Others

## COc1ccc2c(c1)c(CC(=O)O)c(C)n2C(=O)c1ccc(Cl)cc1 [NSAID, indomethacin]
Alanine, aspartate and glutamate metabolism
  vs. Control Direction: ↓
Amino Acid related enzymes
  vs. Control Direction: ↑
Carbohydrate Metabolism, Citrate cycle (TCA cycle)
  vs. Control Direction: ↑
Cell Motility, Bacterial chemotaxis
  vs. Control Direction: ↑
Cell Motility, Bacterial motility proteins
  vs. Control Direction: ↑
Cell Motility, Flagellar assembly
  vs. Control Direction: ↑
Cellular Processes and Signalling, Sporulation
  vs. Control Direction: ↑
Cellular Processes, Cell Motility, Bacterial chemotaxis
  mean % abundance: 1.30%
Cellular Processes, Cell Motility, Bacterial motility proteins
  mean % abundance: 0.81%
Cellular Processes, Cell Motility, Flagellar assembly
  mean % abundance: 0.91%
Chaperones and folding catalysts
  vs. Control Direction: ↓
Energy Metabolism, Carbon fixation pathways in prokaryotes
  vs. Control Direction: ↓
Energy Metabolism, Oxidative phosphorylation
  vs. Control Direction: ↑
Environmental Information Processing, Membrane Transport, ABC transporters
  mean % abundance: 1.71%
Environmental Information Processing, Membrane Transport, Phosphotransferase system (PTS)
  mean % abundance: 0.18%
Environmental Information Processing, Membrane Transport, Transporters
  mean % abundance: 3.82%
Environmental Information Processing, Signal Transduction, Two-component system
  mean % abundance: 0.20%
Folate biosynthesis
  vs. Control Direction: ↑
Genetic Information Processing, Folding, Sorting and Degradation, Chaperones and folding catalysts
  mean % abundance: 0.61%
Genetic Information Processing, Replication and Repair DNA repair and recombination proteins
  mean % abundance: 3.12%
Genetic Information Processing, Replication and Repair, DNA replication proteins
  mean % abundance: 0.50%
Genetic Information Processing, Replication and Repair, Homologous recombination
  mean % abundance: 2.12%
Genetic Information Processing, Transcription, Transcription factors
  mean % abundance: 0.31%
Genetic Information Processing, Translation Ribosome Biogenesis
  mean % abundance: 0.70%
Genetic Information Processing, Translation, Ribosome
  mean % abundance: 2.94%
Lipopolysaccharide biosynthesis
  vs. Control Direction: ↑
Lipopolysaccharide biosynthesis proteins
  vs. Control Direction: ↑
Membrane Transport, ABC transporters
  vs. Control Direction: ↓
Membrane Transport, Phosphotransferase system (PTS)
  vs. Control Direction: ↓
Membrane Transport, Transporters
  vs. Control Direction: ↓
Membrane and intracellular structural molecules
  vs. Control Direction: ↓
Metabolism, Amino Acid Metabolism, Alanine, aspartate and glutamate metabolism
  mean % abundance: 1.14%
Metabolism, Amino Acid Metabolism, Amino Acid related enzymes
  mean % abundance: 1.65%
Metabolism, Carbohydrate Metabolism, Citrate cycle (TCA cycle)
  mean % abundance: 1.25%
Metabolism, Energy Metabolism, Carbon fixation pathways in prokaryotes
  mean % abundance: 0.40%
Metabolism, Energy Metabolism, Oxidative phosphorylation
  mean % abundance: 1.65%
Metabolism, Glycan Biosynthesis and Metabolism, Lipopolysaccharide biosynthesis proteins
  mean % abundance: 1.48%
Metabolism, Glycan Biosynthesis and Metabolism, Lipopolysaccharide biosynthesis
  mean % abundance: 1.55%
Metabolism, Glycan Biosynthesis and Metabolism, Other glycan degradation
  mean % abundance: 1.27%
Metabolism, Metabolism of Cofactors and Vitamins, Folate biosynthesis
  mean % abundance: 1.66%
Metabolism, Metabolism of Cofactors and Vitamins, One carbon pool by folate
  mean % abundance: 0.49%
Metabolism, Metabolism of Cofactors and Vitamins, Porphyrin and chlorophyll metabolism
  mean % abundance: 2.42%
Metabolism, Nucleotide Metabolism, Purine metabolism
  mean % abundance: 0.90%
Metabolism, Nucleotide Metabolism, Pyrimidine metabolism
  mean % abundance: 2.24%
Nucleotide Metabolism, Purine metabolism
  vs. Control Direction: ↓
Nucleotide Metabolism, Pyrimidine metabolism
  vs. Control Direction: ↑
One carbon pool by folate
  vs. Control Direction: ↓
Other glycan degradation
  vs. Control Direction: ↑
Pores ion channels
  vs. Control Direction: ↑
Porphyrin and chlorophyll metabolism
  vs. Control Direction: ↑
Replication and Repair DNA repair and recombination proteins
  vs. Control Direction: ↑
Replication and Repair, DNA replication proteins
  vs. Control Direction: ↓
Replication and Repair, Homologous recombination
  vs. Control Direction: ↑
Signal Transduction, Two-component system
  vs. Control Direction: ↓
Transcription, Transcription factors
  vs. Control Direction: ↓
Translation Ribosome Biogenesis
  vs. Control Direction: ↓
Translation, Ribosome
  vs. Control Direction: ↑
Unclassified, Cellular Processes and Signaling, Pores ion channels
  mean % abundance: 3.54%
Unclassified, Cellular Processes and Signalling, Membrane and intracellular structural molecules
  mean % abundance: 0.17%
Unclassified, Cellular Processes and Signalling, Sporulation
  mean % abundance: 1.00%
[1]
  vs. Control Direction: ↑
  mean % abundance: 1.25%
[2]
  vs. Control Direction: ↑
  mean % abundance: 0.84%
